Data taken from patent US12310974B1, “Method of treating post-traumatic stress disorder with carpipramine” (priority 2023, dated 2025).

Tests used:
[1] = system: rats subjected to psychosocial stress; experiment: Context memory test after predator exposure and housing instability; format: in vivo; settings: daily i.p. 21 days: carpipramine 5, sertraline 5, amitriptyline 2, quetiapine 10 mg/kg, 5 min in chamber
Experimental: (§1) An experiment was conducted to assess the effects of carpipramine, sertraline, amitriptyline and quetiapine in rates subjected to psychosocial stress (predator exposure and housing instability) against PTSD-like behaviours, based on a protocol adapted from Zoladz et al (2012).
(§2) Adult male Sprague-Dawley rats were used in all experiments. Fifty (50) rats were pair-housed on a 12-h light/dark schedule in cages with free access to food and water.
(§3) Following a 1-week acclimation phase, they were given two 1-h cat exposures, separated by 10 days, in conjunction with daily social stress in the form of randomized housing. During each of the two cat exposures, rats were placed in a perforated wedge-shaped Plexiglas enclosure. The rats, still immobilized within the Plexiglas enclosure, were taken to the cat housing room where they were placed in a metal cage with an adult female cat for 1 hour. The Plexiglas enclosure prevented any physical contact between the cat and rats, but enabled the rats to be exposed to all non-tactile sensory stimuli associated with the cat. The two cat exposures were separated by 10 days, with the first exposure taking place during the light cycle, and the second exposure taking place during the dark cycle. Beginning on the day of the first cat exposure, rats were exposed to unstable housing conditions for the next 31 days. They were housed two rats per cage, with their cohort pair combination changed on a daily basis during the entire 31-day stress period.
(§4) The rats were randomly assigned to 5 groups of 10, treated with carpipramine, sertraline, amitriptyline, quetiapine and saline. The treatments were administered as daily intraperitoneal injections over 21 days, starting from the day following the second cat exposure. Daily doses were as following: • Carpipramine: 5 mg/kg • Sertraline: 5 mg/kg • Amitriptyline: 2 mg/kg • Quetiapine: 10 mg/kg
(§5) Since a major component of PTSD is the persistent memory of a traumatic experience, a method with which to measure a rat's memory for the cat exposure experiences was used. Thus, rats were given a predator-based form of fear conditioning. The rats were placed in a chamber for 3 minutes immediately prior to each of the two cat exposures. The chamber consisted of two aluminium sides, an aluminium ceiling and clear Plexiglas on the front and back walls and speaker on one wall. A 74 dB, 2500 Hz tone was presented during the last 30 seconds of each chamber exposure. Three weeks following the second cat exposure, the rats were tested for their conditioned fear memory by assessing their freezing response (degree of immobility) when they were returned to the chamber and exposed to the tone. […] For the cue memory test, the percentage of immobile time was measured during the last 3 minutes (i.e. during the tone).

[2] = system: rats subjected to psychosocial stress; experiment: Cue memory test after predator exposure and housing instability; format: in vivo; settings: daily i.p. 21 days: carpipramine 5, sertraline 5, amitriptyline 2, quetiapine 10 mg/kg, last 3 minutes (tone)
Experimental: as §1, §2, §3, §4, §5

[3] = system: rats subjected to psychosocial stress; experiment: Elevated plus maze (EPM) after predator exposure and housing instability; format: in vivo; settings: daily i.p. 21 days: carpipramine 5, sertraline 5, amitriptyline 2, quetiapine 10 mg/kg, 5 min on EPM
Experimental: as §1, §2, §3, §4
Twenty-four hours after fear conditioning memory testing, the rats were placed on an elevated plus maze (EPM) for 5 minutes. The EPM is a routine test of anxiety in rodents and consists of two open arms and two closed arms of same size (11 cm by 50 cm) that intersect each other to form the shape of a plus sign. At the beginning of each trial, the rats were placed in the intersection area of the EPM, facing one of the open arms. The primary dependent measures of interest were the amount of time rats spent in the open arms and their overall ambulations.

[4] = system: socially isolated mice; experiment: Forced swim test after social isolation (depressive-like behaviour); format: in vivo; settings: forced swim day 36 vs pre-test day 21, minutes 3 to 6; daily s.c. for 2 weeks: carpipramine 5 mg/kg, paroxetine 1 mg/kg, olanzapine 0.3 mg/kg
Experimental: The mice were socially isolated for a period of 3 weeks in individual cages, with a 12-hour light/dark cycle. They had access to food and water at libitum. On day 21, a pre-test was performed. Cylindrical tanks were filled with water (approximately 25° C.) to a depth that prevents mice from touching the bottom. Each mouse was placed in a water-filled cylinder for 6 minutes. If the mouse was swimming or struggling after 6 minutes, it was gently submerged, so that it would struggle under the surface for up to 20 seconds. After this time elapsed, the mouse was removed from the container and placed in a transient drying cage with a heat lamp above it and a heat pad under it. The mice were closely and continuously monitored while recovering in this cage. […] The test was performed on day 36. Mice were placed again in water-filled cylinders for 6 minutes, and then moved to a drying cage. The behaviour of mice was coded over the minutes 3 to 6 of each test, in 3 categories: immobile, struggling and swimming. The time associated with each type of behaviour was recorded. A reduction in immobility time is considered predictive of antidepressant properties.

[5] = system: PTSD patients; experiment: Clinical case reports of patients with PTSD; format: in vivo, human
Source text: A person was referred to a psychiatrist by […] general practitioner as they suffered from anxiety, sleep problems and nightmares. […] They were on leave from their position as a teacher. The subject was diagnosed with PTSD and a cognitive behavioural therapy was initiated.
A patient was followed by a psychiatrist due to depression symptoms, including sadness, feeling of hopelessness, apathy and anxiety. […] Fluoxetine was stopped after 6 months. About one year later, the depression symptoms recurred, alongside with auditory hallucinations. The patient was then. […] Three months later, fluoxetine was reintroduced alongside with risperidone. The patient's mood improved, but they still suffered from anxiety and auditory hallucinations. After 6 weeks with the combination of risperidone and fluoxetine, risperidone was replaced by carpipramine (150 mg/day).
A veteran presented to a psychiatrist with major depressive disorder (sadness, irritability, poor concentration, suicidal thoughts). […] New symptoms emerged, including nightmares and anxiety. […] Three months later, the patient relapsed, and was experiencing anxiety symptoms, nightmares and mildly depressed mood. The relapse was treated with carpipramine (initiated at 200 mg/day), which led to remission after 4 weeks of treatment. The patient's condition was stable for about 3 years. The symptoms (anxiety, nightmares, moderately depressed mood) reappeared after that time, together with hallucinations and flashbacks of combat. The diagnostic of PTSD was then established. Carpipramine (200 mg/day) was prescribed again, following the previous experience. The patient entered remission after 3 weeks of treatment.

[6] = system: alpha-1 adrenoreceptors; settings: cited from earlier work
[7] = system: socially isolated mice; experiment: Contextual fear conditioning and extinction (freezing) in socially isolated mice; format: in vivo; settings: for Change in duration of freezing, mean: carpipramine 10 mg/kg s.c., change from day 1
Source text: Socially isolated mice express a decrease in corticolimbic allopregnanolone levels that is associated with an enhancement of contextual fear responses and impaired fear extinction. Social isolation can be seen as a prolonged stress that is often associated with a precipitating traumatic event, which leads to maladaptive post-stress adaptations and emergence of PTSD in patients. Thus, social isolation is considered to offer a suitable model to study vulnerability to PTSD.
Ten (10) male Swiss-Webster mice were socially isolated for a period of 4 weeks, in individual cages, according to a protocol proposed by Pinna et al.
Day 0—Training Test. During the training, mice were placed into the training chamber and allowed to explore it for 2 min. After this time, they received a conditioned stimulus (acoustic tone, 30 seconds, 85 dB) co-terminated with an unconditioned stimulus (electric foot shock, 2 s, 0.5 mA). This was repeated three times every 2 min. After the last stimuli, mice were allowed to explore the context for an additional minute before removal from the training chamber (total of 8 min).
Day 1—Contextual Test. Twenty-four hours after training, the mice were placed in the contextual cage, and freezing behavior was measured for 5 min without tone or foot shock presentation. Freezing was defined by the absence of any movement except for those related to respiration while the animal was in a stereotypical crouching posture. Freezing time in a index of fear response.
Days 2-5—Extinction Test. For contextual extinction experiments, mice were placed in the contextual cage for periods of 5 min over 4 consecutive days starting 24 h after the contextual test, and freezing behavior was measured.
After the contextual test, 5 mice received a dose of 10 mg/kg of carpipramine subcutaneously. Injections were repeated on days 2 to 4.

[8] = system: DA receptors; settings: rat striatum in vitro; order of potency Y-516 > clocapramine > carpipramine; cited from earlier work
[9] = system: serotonin uptake; settings: studies on metabolic fate and serotonin levels in the brain; cited from earlier work
[10] = Example 6: veteran, sertraline first, switched to venlafaxine, olanzapine subsequently added
[11] = Example 5: patient, fluoxetine as initial treatment, risperidone with psychological therapy

OCCOCCN1CCN(C2=Nc3ccccc3Sc3ccccc32)CC1 [Quetiapine]
Context memory % immobility time, mean [1]: 53.4%
Cue memory (during tone) % immobility time, mean [2]: 39.3%
EPM-Open arm exploration % time in open arm, mean [3]: 28.7%

Fc1ccc([C@@H]2CCNC[C@H]2COc2ccc3c(c2)OCO3)cc1 [Paroxetine]
Mean change in immobility time compared to pre-test [4]: -82.2 s

COc1ccc(C(CN(C)C)C2(O)CCCCC2)cc1 (stereo not drawn) [venlafaxine]
clinical outcome of earlier treatments [5, 10]: some improvement, but severe symptoms persisted

CN(C)C(=O)N[C@H]1CC[C@H](CCN2CCN(c3cccc(Cl)c3Cl)CC2)CC1 [Cariprazine]
affinity for alpha-1 adrenoreceptors [6]: low affinity

Cc1nc2n(c(=O)c1CCN1CCC(c3noc4cc(F)ccc34)CC1)CCCC2 [risperidone]
clinical outcome of earlier treatments [5, 11]: modest improvement

CN(C)CCC=C1c2ccccc2CCc2ccccc21 [Amitriptyline]
Context memory % immobility time, mean [1]: 64.5%
Cue memory (during tone) % immobility time, mean [2]: 42.7%
EPM-Open arm exploration % time in open arm, mean [3]: 20.6%

Cc1cc2c(s1)Nc1ccccc1N=C2N1CCN(C)CC1 [Olanzapine]
Mean change in immobility time compared to pre-test [4]: +19.5 seconds

CNCCC(Oc1ccc(C(F)(F)F)cc1)c1ccccc1 (stereo not drawn) [fluoxetine]
clinical outcome of earlier treatments [5, 11]: improvement in most symptoms, but anxiety persisted

CN[C@H]1CC[C@@H](c2ccc(Cl)c(Cl)c2)c2ccccc21 [Sertraline]
Context memory % immobility time, mean [1]: 37.1%
Cue memory (during tone) % immobility time, mean [2]: 25.7%
EPM-Open arm exploration % time in open arm, mean [3]: 32.5%
clinical outcome of earlier treatments [5, 10]: no improvement

NC(=O)C1(N2CCCCC2)CCN(CCCN2c3ccccc3CCc3ccccc32)CC1 [Carpipramine]
mean duration of freezing ([7]; day 1 contextual test, treated group before first injection (carpipramine 10 mg/kg s.c. given after the test)): 117 s
Change in duration of freezing, mean ([7]; day 2): -76 s
Change in duration of freezing, mean ([7]; day 3): -93 s
Change in duration of freezing, mean ([7]; day 4): -98 s
Change in duration of freezing, mean ([7]; day 5): -99 s
duration of freezing decreased to ([7]; treated group after extinction tests, carpipramine 10 mg/kg s.c. day 1 and days 2 to 4, p<0.01 vs control): 18 s
Mean change in immobility time compared to pre-test [4]: -104.3 s
Context memory % immobility time, mean [1]: 22.3%
Cue memory (during tone) % immobility time, mean [2]: 14.6%
EPM-Open arm exploration % time in open arm, mean [3]: 42.1%
clinical outcome of PTSD symptoms ([5]; Example 4: person, oral carpipramine 100 mg/daily with cognitive behavioural therapy): All PTSD symptoms improved markedly
clinical outcome ([5]; Example 5: patient, carpipramine 150 mg/day replacing risperidone, alongside fluoxetine): entered in remission two weeks later
time to remission ([5]; Example 6: first relapse, carpipramine initiated at 200 mg/day): 4 weeks
time to remission ([5]; Example 6: recurrence about 3 years later, PTSD diagnosed, carpipramine 200 mg/day): 3 weeks
affinity for DA receptors [8]: high affinity
effect on serotonin uptake [9]: did not modify serotonin uptake

NC(=O)C1(N2CCCCC2)CCN(CCCN2c3ccccc3CCc3ccc(Cl)cc32)CC1 [clocapramine]
affinity for DA receptors [8]: high affinity
